Active and inactive are the calls of the source. No cut-off for these calls is given here.
Experiments:
[1] = Clearance in human hepatocytes assessed per 10^6 cells; format: ADME, cell-based, Hepatocyte; details: read-out: CLH
[2] = target: Peroxisome proliferator-activated receptor gamma (Homo sapiens) (UniProt P37231); assay: Inhibition of PPAR gamma (unknown origin)
[3] = target: Muscarinic acetylcholine receptor M2 (Homo sapiens) (UniProt P08172); assay: Inhibition of M2 (unknown origin)
[4] = Half life in Wistar Han rat at 1 mg/kg, iv by LC-MS/MS analysis; format: ADME, organism-based; details: in vivo
[5] = target: Vasopressin V1a receptor (Homo sapiens) (UniProt P37288); assay: Inhibition of AVPR1A (unknown origin)
[6] = target: Type-1 angiotensin II receptor (Homo sapiens) (UniProt P30556); assay: Inhibition of AGTR1 (unknown origin)
Sequence of Type-1 angiotensin II receptor (Homo sapiens) (P30556 whole entry): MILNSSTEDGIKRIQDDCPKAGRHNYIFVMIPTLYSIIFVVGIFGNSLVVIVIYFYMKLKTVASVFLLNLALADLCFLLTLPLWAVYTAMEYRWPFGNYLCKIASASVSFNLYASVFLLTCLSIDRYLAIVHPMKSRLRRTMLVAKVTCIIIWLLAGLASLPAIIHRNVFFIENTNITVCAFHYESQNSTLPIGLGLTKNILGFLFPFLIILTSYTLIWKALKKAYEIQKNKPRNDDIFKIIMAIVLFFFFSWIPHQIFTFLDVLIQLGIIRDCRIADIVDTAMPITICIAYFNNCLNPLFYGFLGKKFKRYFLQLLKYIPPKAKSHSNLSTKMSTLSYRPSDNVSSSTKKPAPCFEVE

[7] = Renal clearance in Wistar Han rat at 1 mg/kg, iv by LC-MS/MS analysis; format: ADME, organism-based, Kidney; details: in vivo
[8] = species: Rattus norvegicus; assay: Increase in […][13C]-citrate levels in rat liver measured over 140 to 150 mins by UPLC-MS/MS analysis; format: functional, organism-based
[9] = target: Na(+)/citrate cotransporter (Mus musculus, UniProt Q67BT3); assay: Inhibition of NaCT in mouse hepatocytes assessed as [14C]-citrate uptake after 30 mins by scintillation counting method; format: cell-based, Hepatocyte
[10] = target: Cytochrome P450 2D6 (Homo sapiens, UniProt P10635); assay: Inhibition of CYP2D6 (unknown origin); format: ADME
[11] = target: 3',5'-cyclic-AMP phosphodiesterase 4D (Homo sapiens) (UniProt Q08499); assay: Inhibition of PDE4D3 (unknown origin)
Sequence of 3',5'-cyclic-AMP phosphodiesterase 4D (Homo sapiens) (Q08499 whole entry): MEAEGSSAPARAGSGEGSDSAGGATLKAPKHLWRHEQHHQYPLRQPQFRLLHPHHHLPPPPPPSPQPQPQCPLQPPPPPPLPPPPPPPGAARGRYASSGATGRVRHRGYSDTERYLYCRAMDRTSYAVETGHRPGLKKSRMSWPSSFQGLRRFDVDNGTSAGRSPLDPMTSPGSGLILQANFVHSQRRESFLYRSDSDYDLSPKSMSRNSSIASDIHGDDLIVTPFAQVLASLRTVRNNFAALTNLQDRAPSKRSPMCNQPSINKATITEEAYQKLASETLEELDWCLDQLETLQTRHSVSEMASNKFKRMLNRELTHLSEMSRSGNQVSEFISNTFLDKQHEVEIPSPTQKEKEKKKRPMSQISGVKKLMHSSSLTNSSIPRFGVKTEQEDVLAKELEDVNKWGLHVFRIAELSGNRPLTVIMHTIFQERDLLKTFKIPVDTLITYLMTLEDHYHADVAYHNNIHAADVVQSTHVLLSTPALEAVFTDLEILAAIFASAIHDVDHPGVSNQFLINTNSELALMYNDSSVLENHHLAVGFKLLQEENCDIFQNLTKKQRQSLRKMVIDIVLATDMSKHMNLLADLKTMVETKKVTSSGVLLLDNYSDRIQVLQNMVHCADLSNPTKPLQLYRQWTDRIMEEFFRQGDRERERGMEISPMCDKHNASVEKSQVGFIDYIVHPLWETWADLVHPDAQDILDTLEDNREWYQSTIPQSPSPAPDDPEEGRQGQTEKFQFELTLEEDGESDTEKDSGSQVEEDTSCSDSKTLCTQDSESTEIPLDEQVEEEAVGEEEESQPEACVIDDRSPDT

[12] = system: Mus musculus; assay: Increase in urinary calcium level in C57BL/6J mouse at 250 mg/kg, po measured after 7 hrs by UPLC-MS/MS analysis; format: functional, organism-based; details: Urine
[13] = target: Na(+)/dicarboxylate cotransporter 3 (Homo sapiens, UniProt Q8WWT9); assay: Inhibition of NaDC3 (unknown origin) expressed in HEK293 cells assessed as inhibition of [14C]citrate uptake by microbeta plate reader analysis; format: cell-based
Sequence of Na(+)/dicarboxylate cotransporter 3 (Q8WWT9 whole entry): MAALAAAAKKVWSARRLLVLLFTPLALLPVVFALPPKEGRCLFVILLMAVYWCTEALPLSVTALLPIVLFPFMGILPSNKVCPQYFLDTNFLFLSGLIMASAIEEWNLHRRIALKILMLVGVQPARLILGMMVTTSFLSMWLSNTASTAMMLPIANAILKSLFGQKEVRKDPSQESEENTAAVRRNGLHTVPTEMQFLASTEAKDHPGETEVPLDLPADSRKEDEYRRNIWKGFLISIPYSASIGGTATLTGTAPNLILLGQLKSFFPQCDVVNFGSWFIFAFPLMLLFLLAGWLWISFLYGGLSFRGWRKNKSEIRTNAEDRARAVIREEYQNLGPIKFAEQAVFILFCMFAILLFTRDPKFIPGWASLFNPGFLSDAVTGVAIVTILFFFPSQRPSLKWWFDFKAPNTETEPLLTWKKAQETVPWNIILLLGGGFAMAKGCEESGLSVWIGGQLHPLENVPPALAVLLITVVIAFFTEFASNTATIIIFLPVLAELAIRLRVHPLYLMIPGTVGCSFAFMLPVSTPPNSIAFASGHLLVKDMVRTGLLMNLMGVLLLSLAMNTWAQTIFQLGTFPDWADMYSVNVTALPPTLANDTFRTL

[14] = target: Tyrosine-protein kinase ABL1 (Homo sapiens) (UniProt P00519); assay: Inhibition of ABL1 (unknown origin)
[15] = Total plasma clearance in Wistar Han rat at 1 mg/kg, iv by LC-MS/MS analysis; format: ADME, organism-based
[16] = species: Homo sapiens; assay: Inhibition of PDE3A1 (unknown origin)
[17] = system: Rattus norvegicus; assay: Decrease in [14C]citrate uptake in iv dosed Wistar Han rat liver measured after 185 to 200 mins by scintillation counting method; format: functional, organism-based
[18] = target: T1, Solute carrier family 13 member 2 (Homo sapiens, UniProt Q13183); assay: Inhibition of NaDC1 (unknown origin) expressed in HEK293 cells assessed as inhibition of [14C]citrate uptake by microbeta plate reader analysis; format: cell-based
T1 sequence (Q13183 whole entry): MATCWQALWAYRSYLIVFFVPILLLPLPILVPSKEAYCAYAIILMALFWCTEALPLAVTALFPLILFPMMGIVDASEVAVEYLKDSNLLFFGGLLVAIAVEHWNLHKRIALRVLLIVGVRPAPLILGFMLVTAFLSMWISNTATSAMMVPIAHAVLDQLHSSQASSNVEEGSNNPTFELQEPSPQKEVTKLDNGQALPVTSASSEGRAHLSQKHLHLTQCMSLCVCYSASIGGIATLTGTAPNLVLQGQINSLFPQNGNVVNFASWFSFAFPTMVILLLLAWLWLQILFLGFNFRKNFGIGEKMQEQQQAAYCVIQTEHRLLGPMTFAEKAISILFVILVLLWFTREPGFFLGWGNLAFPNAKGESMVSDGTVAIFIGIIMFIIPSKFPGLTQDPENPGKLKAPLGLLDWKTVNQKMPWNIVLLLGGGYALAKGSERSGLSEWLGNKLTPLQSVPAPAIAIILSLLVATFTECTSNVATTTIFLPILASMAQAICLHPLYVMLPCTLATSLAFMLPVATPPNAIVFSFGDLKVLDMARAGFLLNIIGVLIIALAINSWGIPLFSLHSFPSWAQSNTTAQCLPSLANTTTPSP

[19] = species: Rattus norvegicus; assay: Increase in [12C]-citrate levels in rat liver measured over 140 to 150 mins by UPLC-MS/MS analysis; format: functional, organism-based
[20] = system: Rattus norvegicus; assay: Decrease in [14C]citrate uptake in iv dosed Wistar Han rat kidney measured after 185 to 200 mins by scintillation counting method; format: functional, organism-based
[21] = target: Sodium-dependent phosphate transport protein 3 (Homo sapiens) (UniProt O00624); assay: Inhibition of NaPiA3 (unknown origin)
[22] = target: Voltage-gated L-type calcium channel (Homo sapiens, UniProt Q13936+Q13698+Q01668+O60840); assay: Inhibition of L type calcium channel (unknown origin); format: protein assay
[23] = Volume of distribution at steady state in Wistar Han rat at 1 mg/kg, iv by LC-MS/MS analysis; format: ADME, organism-based; details: in vivo, read-out: Vdss
[24] = target: Vascular endothelial growth factor receptor 2 (Homo sapiens) (UniProt P35968); assay: Inhibition of VEGFR2 (unknown origin)
[25] = target: Cytochrome P450 2C8 (Homo sapiens, UniProt P10632); assay: Inhibition of CYP2C8 (unknown origin); format: ADME
Sequence of Cytochrome P450 2C8 (P10632 whole entry): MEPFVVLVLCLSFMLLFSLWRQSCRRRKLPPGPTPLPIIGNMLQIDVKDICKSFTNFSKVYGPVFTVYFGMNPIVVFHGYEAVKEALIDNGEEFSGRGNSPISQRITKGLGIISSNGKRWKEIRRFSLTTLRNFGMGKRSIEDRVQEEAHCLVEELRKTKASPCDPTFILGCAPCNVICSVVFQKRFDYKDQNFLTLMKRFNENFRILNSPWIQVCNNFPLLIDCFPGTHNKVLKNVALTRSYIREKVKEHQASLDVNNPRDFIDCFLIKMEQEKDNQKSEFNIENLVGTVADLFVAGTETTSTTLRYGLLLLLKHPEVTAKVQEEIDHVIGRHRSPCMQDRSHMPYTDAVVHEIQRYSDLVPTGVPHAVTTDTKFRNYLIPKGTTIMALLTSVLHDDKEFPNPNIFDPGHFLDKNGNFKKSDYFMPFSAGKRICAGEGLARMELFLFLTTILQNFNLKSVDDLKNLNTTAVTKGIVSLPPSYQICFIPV

[26] = target: Prostaglandin G/H synthase 2 (Homo sapiens) (UniProt P35354); assay: Inhibition of cyclooxygenase 2 (unknown origin)
[27] = species: Mus musculus; assay: Decrease in [14C]citrate uptake in DIO mouse liver during hyperinsulinemic-euglycemic clamp; format: functional, organism-based
[28] = target: Cytochrome P450 1A2 (Homo sapiens, UniProt P05177); assay: Inhibition of CYP1A2 (unknown origin); format: ADME
[29] = target: Alpha-2B adrenergic receptor (Homo sapiens) (UniProt P18089); assay: Inhibition of ADRA2B (unknown origin)
[30] = target: Androgen receptor (Homo sapiens) (UniProt P10275); assay: Inhibition of Androgen receptor (unknown origin)
[31] = species: Rattus norvegicus; assay: Increase in [12C]-citrate levels in rat plasma measured over 140 to 150 mins by UPLC-MS/MS analysis; format: functional, organism-based
[32] = target: Beta-2 adrenergic receptor (Homo sapiens) (UniProt P07550); assay: Inhibition of ADRB2 (unknown origin)
Sequence of Beta-2 adrenergic receptor (Homo sapiens) (P07550 whole entry, looked up): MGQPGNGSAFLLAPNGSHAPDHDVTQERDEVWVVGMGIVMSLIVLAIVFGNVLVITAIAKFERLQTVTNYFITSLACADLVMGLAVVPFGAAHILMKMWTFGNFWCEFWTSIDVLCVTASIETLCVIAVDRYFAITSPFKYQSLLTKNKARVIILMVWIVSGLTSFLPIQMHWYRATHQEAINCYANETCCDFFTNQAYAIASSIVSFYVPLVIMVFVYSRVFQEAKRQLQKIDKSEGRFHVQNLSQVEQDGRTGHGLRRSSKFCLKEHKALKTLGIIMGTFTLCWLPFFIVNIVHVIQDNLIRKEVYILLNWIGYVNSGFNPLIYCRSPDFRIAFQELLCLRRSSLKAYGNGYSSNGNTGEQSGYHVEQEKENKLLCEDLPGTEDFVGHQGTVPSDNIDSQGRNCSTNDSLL

[33] = target: Sodium-dependent phosphate transport protein 2A (Homo sapiens) (UniProt Q06495); assay: Inhibition of NaPiA2 (unknown origin)
[34] = target: 3',5'-cyclic-AMP phosphodiesterase 4D (Homo sapiens) (UniProt Q08499); assay: Inhibition of PDE4D2 (unknown origin)
[35] = target: Na(+)/citrate cotransporter (Homo sapiens, UniProt Q86YT5); assay: Inhibition of NaCT (unknown origin) expressed in HEK293 cells assessed as inhibition of [14C]citrate uptake by microbeta plate reader analysis; format: cell-based; details: read-out: IC50
Sequence of Na(+)/citrate cotransporter (Homo sapiens, UniProt Q86YT5) (Q86YT5 whole entry): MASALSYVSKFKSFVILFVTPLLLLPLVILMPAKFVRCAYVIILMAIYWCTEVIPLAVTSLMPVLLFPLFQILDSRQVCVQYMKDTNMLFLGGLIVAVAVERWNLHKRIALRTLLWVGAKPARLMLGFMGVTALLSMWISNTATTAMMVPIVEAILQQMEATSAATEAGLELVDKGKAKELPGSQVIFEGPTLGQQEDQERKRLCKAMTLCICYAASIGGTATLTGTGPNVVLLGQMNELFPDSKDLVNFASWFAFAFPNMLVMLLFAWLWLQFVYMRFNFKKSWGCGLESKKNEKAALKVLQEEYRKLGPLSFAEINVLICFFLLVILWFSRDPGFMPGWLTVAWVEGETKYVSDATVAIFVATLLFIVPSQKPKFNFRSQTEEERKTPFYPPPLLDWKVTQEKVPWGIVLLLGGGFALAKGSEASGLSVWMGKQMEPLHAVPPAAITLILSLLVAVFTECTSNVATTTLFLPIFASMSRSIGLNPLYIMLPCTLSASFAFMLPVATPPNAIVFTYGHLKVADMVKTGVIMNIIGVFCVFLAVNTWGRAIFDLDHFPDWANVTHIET

[36] = species: Rattus norvegicus; assay: Increase in […][13C]-citrate levels in rat plasma measured over 140 to 150 mins by UPLC-MS/MS analysis; format: functional, organism-based
[37] = target: Proto-oncogene tyrosine-protein kinase Src (Homo sapiens) (UniProt P12931); assay: Inhibition of SRC (unknown origin)
[38] = target: cGMP-inhibited 3',5'-cyclic phosphodiesterase 3B (Homo sapiens) (UniProt Q13370); assay: Inhibition of PDE3B (unknown origin)
Sequence of cGMP-inhibited 3',5'-cyclic phosphodiesterase 3B (Homo sapiens) (Q13370 whole entry, looked up): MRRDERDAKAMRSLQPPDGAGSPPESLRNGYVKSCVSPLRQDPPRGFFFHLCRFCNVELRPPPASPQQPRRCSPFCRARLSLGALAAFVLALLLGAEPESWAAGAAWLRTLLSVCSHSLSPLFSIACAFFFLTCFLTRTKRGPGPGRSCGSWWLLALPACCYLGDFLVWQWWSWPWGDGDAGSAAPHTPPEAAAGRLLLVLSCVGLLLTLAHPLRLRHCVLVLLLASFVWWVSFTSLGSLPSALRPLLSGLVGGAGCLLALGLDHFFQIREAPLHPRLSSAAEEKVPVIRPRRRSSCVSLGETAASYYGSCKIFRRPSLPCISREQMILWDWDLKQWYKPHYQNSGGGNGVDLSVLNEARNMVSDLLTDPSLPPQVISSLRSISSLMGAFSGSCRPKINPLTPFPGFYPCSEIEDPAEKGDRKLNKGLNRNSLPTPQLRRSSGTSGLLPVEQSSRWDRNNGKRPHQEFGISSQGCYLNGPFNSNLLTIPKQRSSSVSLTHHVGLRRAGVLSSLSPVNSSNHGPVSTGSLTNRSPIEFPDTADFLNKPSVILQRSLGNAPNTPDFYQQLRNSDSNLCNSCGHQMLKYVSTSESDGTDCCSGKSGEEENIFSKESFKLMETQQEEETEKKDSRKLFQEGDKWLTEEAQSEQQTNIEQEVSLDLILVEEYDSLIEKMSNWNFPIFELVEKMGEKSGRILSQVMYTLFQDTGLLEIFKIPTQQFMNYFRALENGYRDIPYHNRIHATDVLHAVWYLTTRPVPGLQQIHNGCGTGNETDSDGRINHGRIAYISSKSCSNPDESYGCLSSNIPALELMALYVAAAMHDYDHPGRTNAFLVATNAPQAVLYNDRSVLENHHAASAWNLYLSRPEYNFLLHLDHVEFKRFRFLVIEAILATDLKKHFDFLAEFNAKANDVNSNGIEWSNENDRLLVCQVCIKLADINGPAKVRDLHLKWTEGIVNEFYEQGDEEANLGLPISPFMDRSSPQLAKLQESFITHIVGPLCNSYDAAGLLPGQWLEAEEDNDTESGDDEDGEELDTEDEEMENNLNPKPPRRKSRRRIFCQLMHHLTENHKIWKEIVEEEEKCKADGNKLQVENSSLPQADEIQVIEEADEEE

Sequence of Muscarinic acetylcholine receptor M2 (Homo sapiens) (P08172 whole entry): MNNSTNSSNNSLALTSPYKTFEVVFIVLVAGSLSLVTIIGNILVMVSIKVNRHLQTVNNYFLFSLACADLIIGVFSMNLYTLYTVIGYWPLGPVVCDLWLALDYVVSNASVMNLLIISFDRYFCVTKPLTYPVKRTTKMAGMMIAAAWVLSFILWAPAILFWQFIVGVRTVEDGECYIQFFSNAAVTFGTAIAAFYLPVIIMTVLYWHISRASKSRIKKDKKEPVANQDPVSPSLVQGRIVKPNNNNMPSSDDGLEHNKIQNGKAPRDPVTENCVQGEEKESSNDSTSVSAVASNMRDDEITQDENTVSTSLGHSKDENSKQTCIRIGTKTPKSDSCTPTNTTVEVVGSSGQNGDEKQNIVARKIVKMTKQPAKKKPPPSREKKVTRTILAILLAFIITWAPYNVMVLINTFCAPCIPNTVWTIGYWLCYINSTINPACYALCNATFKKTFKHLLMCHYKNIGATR

COc1ncc(C)cc1CC[C@@](O)(CC(=O)O)C(=O)O
hepatocyte CLint [1]: 7 µL/min/1e6 cells
inhibition [2]: inactive
inhibition [3]: inactive
half-life [4]: 102 min
inhibition [5]: inactive
inhibition [6]: inactive
CL renal [7]: 4.4 mL/min/kg
Activity [8]: Active
IC50 [9]: 210 nM
inhibition (INH) [10]: Not Active
inhibition [11]: inactive
Activity [12]: Active
IC50 ([13]; read-out: IC50): 14.1 µM
IC50 ([13]; read-out: pIC50 (converted)): 10 µM
inhibition [14]: inactive
clearance [15]: 15.8 mL/min/kg
inhibition [16]: inactive
IC50 [17]: 1400 nM
IC50 ([18]; read-out: IC50): 13.2 µM
IC50 ([18]; read-out: pIC50 (converted)): 10 µM
Activity [19]: Active
IC50 [20]: 1000 nM
inhibition [21]: inactive
inhibition (INH) [22]: Not Active
Vd [23]: 0.54 L/kg
inhibition [24]: inactive
inhibition (INH) [25]: Not Active
inhibition [26]: inactive
inhibition [27]: Active
inhibition (INH) [28]: Not Active
inhibition [29]: inactive
inhibition [30]: inactive
Activity [31]: Active
inhibition [32]: inactive
inhibition [33]: inactive
inhibition [34]: inactive
IC50 [35]: 510 nM
Activity [36]: Active
inhibition [37]: inactive
inhibition [38]: inactive

Source: ChEMBL document CHEMBL3769388, “Optimization of a Dicarboxylic Series for in Vivo Inhibition of Citrate Transport by the Solute Carrier 13 (SLC13) Family” (J Med Chem, 2016)
